For nine molecules, IC50 results are on record in patent publication US12209102B2, “Heterocyclic compounds and uses thereof” (Kumquat Biosciences Inc., priority 2022, dated 2025).

Test [1] has as its target T1, K-Ras G12D (Homo sapiens, UniProt P01116, G12D).
T1 construct: made in house; host or cells: E. coli BL21 (DE3)
As to the kind of experiment: HTRF resonance energy transfer assay, K-Ras G12D / SOS1 interaction. Type of test: biochemical. To be noted: HTRF assay of Example 5; read-out: IC50 against K-Ras G12D. An outline of the steps: (§1)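 Read-out: HTRF 665/620 nm ratio (excitation 337 nm) after roughly 10 min or longer incubation, used to derive IC50. Donor anti-GST-Eu on GST-K-Ras; acceptor anti-6His-XL665 on His-hSOS1. Duplicate dose series from 10 μM down to 0.01 μM.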
On the technique in general: TR-FRET usually uses a lanthanide donor and a delayed reading to cut background.

For test [2], the target named is T2, K-Ras G12S (Homo sapiens, UniProt P01116, G12S).
T2 construct: made in house; host or cells: E. coli BL21 (DE3)
Description: HTRF resonance energy transfer assay, K-Ras G12S / SOS1 interaction. Type of test: biochemical. Particulars: HTRF assay of Example 5; read-out: IC50 against K-Ras G12S. Put shortly:
as §1

Test [3] addresses T3, K-Ras G12V (Homo sapiens, UniProt P01116, G12V).
T3 construct: made in house; host or cells: E. coli BL21 (DE3)
As to the kind of experiment: HTRF resonance energy transfer assay, K-Ras G12V / SOS1 interaction. Type of test: biochemical. To be noted: HTRF assay of Example 5; read-out: IC50 against K-Ras G12V. Put shortly:
as §1

Test [4] concerns the target T4, K-Ras WT (Homo sapiens, UniProt P01116).
T4 construct: made in house; host or cells: E. coli BL21 (DE3)
As to the kind of experiment: HTRF resonance energy transfer assay, K-Ras WT / SOS1 interaction. Type of test: biochemical. Particulars: HTRF assay of Example 5; read-out: IC50 against K-Ras WT. An outline of the steps: as §1

The test system of test [5] is GP2D cells. As to the kind of experiment: Ras cellular assay, growth of cells with K-Ras G12D mutation (CellTiter-Glo). Type of test: cell-based. Particulars: cell growth, Example 9, G12D mutation, read-out: IC50 against GP2D cells. In general terms: Cellular ATP, detected with luciferase, serves as a proxy for viable cell number.
Test [6] relates to A549 cells. As to the kind of experiment: Ras cellular assay, growth of cells with K-Ras G12S mutation (CellTiter-Glo). Type of test: cell-based. Particulars: Homo sapiens, cell growth, Example 9, G12S mutation, read-out: IC50 against A549 cells. An outline of the steps: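 A549 cells (K-Ras G12S) in RPMI-1640 with 10% heat-inactivated FBS, seeded e.g. 800 per well in standard or ultra-low-attachment 384-well plates, treated next day with a dilution series (e.g. 10-point, 3-fold). Viability by CellTiter-Glo luminescence about 6 days later; IC50 from four-parameter fit.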

Test [7] has as its system SW620 cells. Description: Ras cellular assay, growth of cells with K-Ras G12V mutation (CellTiter-Glo). Type of test: cell-based. To be noted: Homo sapiens, SW-620; cell growth, Example 9, G12V mutation; read-out: IC50 against SW620 cells. An outline of the steps:
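SW620 (K-Ras G12V) cells, e.g. 800/well in RPMI-1640 with 10% heat-inactivated FBS on standard or ultra-low attachment plates, were dosed the day after plating with e.g. a 10-point 3-fold series. Viability by CellTiter-Glo luminescence about 6 days later; IC50 from four-parameter fit.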

T4 sequence (P01116 1-188 isoform P01116-2): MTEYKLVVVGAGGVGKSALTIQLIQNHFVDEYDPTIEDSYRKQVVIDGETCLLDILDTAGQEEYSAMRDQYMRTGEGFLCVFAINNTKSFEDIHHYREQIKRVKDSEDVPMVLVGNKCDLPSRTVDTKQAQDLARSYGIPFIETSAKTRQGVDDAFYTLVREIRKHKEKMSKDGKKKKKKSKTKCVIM
T3 sequence (P01116 1-188 isoform P01116-2 G12V): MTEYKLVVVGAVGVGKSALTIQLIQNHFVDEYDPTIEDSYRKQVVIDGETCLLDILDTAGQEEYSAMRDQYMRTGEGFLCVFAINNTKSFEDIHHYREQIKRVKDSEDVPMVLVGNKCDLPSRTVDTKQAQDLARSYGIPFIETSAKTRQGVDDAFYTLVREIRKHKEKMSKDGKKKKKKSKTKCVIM
T1 sequence (P01116 1-188 isoform P01116-2 G12D): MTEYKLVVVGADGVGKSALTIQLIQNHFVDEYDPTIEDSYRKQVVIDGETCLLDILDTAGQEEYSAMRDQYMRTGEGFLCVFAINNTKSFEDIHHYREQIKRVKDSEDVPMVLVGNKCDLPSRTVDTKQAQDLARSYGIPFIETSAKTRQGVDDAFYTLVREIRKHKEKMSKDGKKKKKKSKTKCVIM
T2 sequence (P01116 1-188 isoform P01116-2 G12S): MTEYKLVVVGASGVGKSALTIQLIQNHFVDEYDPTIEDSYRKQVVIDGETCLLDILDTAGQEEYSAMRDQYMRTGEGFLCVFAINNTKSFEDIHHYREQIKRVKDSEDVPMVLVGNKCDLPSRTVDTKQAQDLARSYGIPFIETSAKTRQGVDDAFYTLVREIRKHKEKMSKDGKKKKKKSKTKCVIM

`CN(C=O)C1CC(N2CCOc3c(Cl)c(-c4ccc(F)c5sc(N)c(C#N)c45)c(F)c4nc(OC[C@@]56CCCN5C[C@H](F)C6)nc2c34)C1` (stereo partly drawn) [Compound 1119, N-(3-(9-(2-amino-3-cyano-7-fluorobenzo[b]thiophen-4-yl)-8-chloro-10-fluoro-2-(((2R,7aS)-2-fluorotetrahydro-1H-pyrrolizin-7a(5H)-yl)methoxy)-5,6-dihydro-4H-[1,4]oxazepino[5,6,7-de]quinazolin-4-yl)cyclobutyl)-N-methylformamide]: the IC50 in test [1] is below 100 nM; in test [2], below 100 nM; in test [3] it was below 100 nM; in test [4], below 100 nM; in test [5] it was below 500 nM; in test [6], below 5000 nM. For the same molecule, the IC50 in test [7] was below 5000 nM.

Consider `N#Cc1c(N)sc2c(F)ccc(-c3c(Cl)c4c5c(nc(OC[C@@]67CCCN6C[C@H](F)C7)nc5c3F)N(C3CCN(C(=O)CC5COC5)C3)CCO4)c12` (stereo partly drawn) [Compound 1126, 2-amino-4-(8-chloro-10-fluoro-2-(((2R,7aS)-2-fluorotetrahydro-1H-pyrrolizin-7a(5H)-yl)methoxy)-4-(1-(2-(oxetan-3-yl)acetyl)pyrrolidin-3-yl)-5,6-dihydro-4H-[1,4]oxazepino[5,6,7-de]quinazolin-9-yl)-7-fluorobenzo[b]thiophene-3-carbonitrile], for which the IC50 is below 100 nM in test [1]; below 100 nM in test [2]; below 100 nM in test [3]; below 100 nM in test [4]; below 500 nM in test [5]; below 5000 nM in test [6]. Also, in test [7], the IC50 is below 5000 nM.

`CN(CCN1CCOc2c(Cl)c(-c3ccc(F)c4sc(N)c(C#N)c34)c(F)c3nc(OC[C@@]45CCCN4C[C@H](F)C5)nc1c23)C(=O)C(F)F` [Compound 1127, N-(2-(9-(2-amino-3-cyano-7-fluorobenzo[b]thiophen-4-yl)-8-chloro-10-fluoro-2-(((2R,7aS)-2-fluorotetrahydro-1H-pyrrolizin-7a(5H)-yl)methoxy)-5,6-dihydro-4H-[1,4]oxazepino[5,6,7-de]quinazolin-4-yl)ethyl)-2,2-difluoro-N-methylacetamide]: the IC50 in test [1] is below 100 nM; in test [2], below 100 nM; in test [3] it was below 100 nM; in test [4], below 100 nM; in test [5], below 500 nM; in test [6], below 5000 nM. The IC50 in test [7] is below 5000 nM.

`C[C@@H]1CN(CC(F)F)c2nc(OC[C@@]34CCCN3C[C@H](F)C4)nc3c(F)c(-c4ccc(F)c5sc(N)c(C#N)c45)c(Cl)c(c23)O1` [Compound 1133, 2-amino-4-((6R)-8-chloro-4-(2,2-difluoroethyl)-10-fluoro-2-(((2R,7aS)-2-fluorotetrahydro-1H-pyrrolizin-7a(5H)-yl)methoxy)-6-methyl-5,6-dihydro-4H-[1,4]oxazepino[5,6,7-de]quinazolin-9-yl)-7-fluorobenzo[b]thiophene-3-carbonitrile]: the IC50 in test [1] was below 100 nM; in test [2] it was below 100 nM; in test [3], below 100 nM; in test [4], below 100 nM; in test [5], below 500 nM; in test [6] it was below 5000 nM. Further, the IC50 in test [7] was below 5000 nM.

Take `COCC(=O)N1CCC(N2CCOc3c(Cl)c(-c4ccc(F)c5sc(N)c(C#N)c45)c(F)c4nc(OC[C@@]56CCCN5C[C@H](F)C6)nc2c34)C1` (stereo partly drawn) [Compound 1134, 2-amino-4-(8-chloro-10-fluoro-2-(((2R,7aS)-2-fluorotetrahydro-1H-pyrrolizin-7a(5H)-yl)methoxy)-4-(1-(2-methoxyacetyl)pyrrolidin-3-yl)-5,6-dihydro-4H-[1,4]oxazepino[5,6,7-de]quinazolin-9-yl)-7-fluorobenzo[b]thiophene-3-carbonitrile]: the half-maximal inhibitory concentration (IC50) in test [1] is below 100 nM; in test [2] it was below 100 nM; in test [3], below 100 nM; in test [4], below 100 nM; in test [5] it was below 500 nM; in test [6], below 5000 nM. Further, the IC50 in test [7] is below 5000 nM.

For the molecule `C[C@@H]1CCOc2c(Cl)c(-c3ccc(F)c4sc(N)c(C#N)c34)c(F)c3nc(OC[C@@]45CCCN4C[C@H](F)C5)nc(c23)N1CC(F)F` [Compound 1203, 2-amino-4-((R)-9-chloro-4-(2,2-difluoroethyl)-11-fluoro-2-(((2R,7aS)-2-fluorotetrahydro-1H-pyrrolizin-7a(5H)-yl)methoxy)-5-methyl-4,5,6,7-tetrahydro-[1,5]oxazocino[4,3,2-de]quinazolin-10-yl)-7-fluorobenzo[b]thiophene-3-carbonitrile], the IC50 in test [1] is below 100 nM; in test [2], below 100 nM; in test [3] it was below 100 nM; in test [4], below 100 nM; in test [5], below 500 nM; in test [6], below 5000 nM. Besides, the IC50 in test [7] was below 5000 nM.

As for `N#Cc1c(N)sc2c(F)ccc(-c3c(Cl)c4c5c(nc(OC[C@@]67CCCN6C[C@H](F)C7)nc5c3F)N(CCC(F)F)CCCO4)c12` [Compound 1212, 2-amino-4-(9-chloro-4-(3,3-difluoropropyl)-11-fluoro-2-(((2R,7aS)-2-fluorotetrahydro-1H-pyrrolizin-7a(5H)-yl)methoxy)-4,5,6,7-tetrahydro-[1,5]oxazocino[4,3,2-de]quinazolin-10-yl)-7-fluorobenzo[b]thiophene-3-carbonitrile], the IC50 is below 100 nM in test [1]; below 100 nM in test [2]; below 100 nM in test [3]; below 100 nM in test [4]; below 500 nM in test [5]; below 5000 nM in test [6]. Moreover, the IC50 in test [7] is below 5000 nM.

Regarding `N#Cc1c(N)sc2c(F)ccc(-c3c(Cl)c4c5c(nc(OC[C@@]67CCCN6C[C@H](F)C7)nc5c3F)N(CC(F)F)CCCO4)c12` [Compound 1218, 2-amino-4-(9-chloro-4-(2,2-difluoroethyl)-11-fluoro-2-(((2R,7aS)-2-fluorotetrahydro-1H-pyrrolizin-7a(5H)-yl)methoxy)-4,5,6,7-tetrahydro-[1,5]oxazocino[4,3,2-de]quinazolin-10-yl)-7-fluorobenzo[b]thiophene-3-carbonitrile], the IC50 in test [1] was below 100 nM; in test [2], below 100 nM; in test [3], below 100 nM; in test [4], below 100 nM; in test [5], below 500 nM; in test [6] it was below 5000 nM. Besides, the IC50 in test [7] was below 5000 nM.

Turning to `N#Cc1c(N)sc2c(F)ccc(-c3c(Cl)c4c5c(nc(OC[C@@]67CCCN6C[C@H](F)C7)nc5c3F)N(C3CCOC3)CC(O)CO4)c12` (stereo partly drawn) [Compound 1225, 2-amino-4-(9-chloro-11-fluoro-2-(((2R,7aS)-2-fluorotetrahydro-1H-pyrrolizin-7a(5H)-yl)methoxy)-6-hydroxy-4-(tetrahydrofuran-3-yl)-4,5,6,7-tetrahydro-[1,5]oxazocino[4,3,2-de]quinazolin-10-yl)-7-fluorobenzo[b]thiophene-3-carbonitrile], the IC50 in test [1] is below 100 nM; in test [2], below 100 nM; in test [3] it was below 100 nM; in test [4], below 100 nM; in test [5] it was below 500 nM; in test [6] it was below 5000 nM. For the same molecule, the IC50 in test [7] is below 5000 nM.

As usually defined, the IC50 is the point on the concentration scale where inhibition reaches its midpoint.
